Data from ChEMBL document CHEMBL1221236, “Discovery of a factor Xa inhibitor (3R,4R)-1-(2,2-difluoro-ethyl)-pyrrolidine-3,4-dicarboxylic acid 3-[(5-chloro-pyridin-2-yl)-amide] 4-[[2-fluoro-4-(2-oxo-2H-pyridin-1-yl)-phenyl]-amide] as a clinical candidate” (Bioorg Med Chem Lett, 2010).
One block for each molecule: values may come before it.

Legend:
[1] = Lipophilicity, log D of the compound at pH 7.4; format: physicochemical; settings: buffer
[2] = Permeability of the compound by PAMPA; format: ADME; settings: read-out: permeability
[3] = Volume of distribution at steady state in rat; format: ADME, organism-based; settings: in vivo, read-out: Vdss
Rattus norvegicus = assay: Dose normalized AUC in po dosed rat; format: ADME, organism-based; settings: in vivo
[4] = Oral bioavailability in rat; format: ADME, organism-based; settings: in vivo
[5] = Dissociation constant, pKa of the compound; format: physicochemical
[6] = Volume of distribution at steady state in cynomolgus monkey; format: ADME, organism-based, Macaca fascicularis; settings: in vivo, read-out: Vdss
Cynomolgus monkey = assay: Dose normalized AUC in po dosed cynomolgus monkey; format: ADME, organism-based, Macaca fascicularis; settings: in vivo
[7] = Half life in po dosed rat; format: ADME, organism-based; settings: in vivo
Phospholipidosis = assay: In vitro phospholipidosis; format: ADME, cell-based; settings: human, hepg2
[8] = Half life in cynomolgus monkey; format: ADME, organism-based, Macaca fascicularis; settings: in vivo
[9] = Oral bioavailability in cynomolgus monkey; format: ADME, organism-based, Macaca fascicularis; settings: in vivo
[10] = Clearance in cynomolgus monkey; format: ADME, organism-based, Macaca fascicularis; settings: in vivo
[11] = Clearance in rat; format: ADME, organism-based; settings: in vivo

logD [1]: 1.19
Compound: COc1ccc(NC(=O)[C@H]2CN(S(C)(=O)=O)C[C@@H]2C(=O)Nc2ccc(-n3ccccc3=O)cc2F)cc1

logD [1]: 2.17
Compound: CS(=O)(=O)N1C[C@H](C(=O)Nc2ccc(Cl)cc2)[C@@H](C(=O)Nc2ccc(-n3ccccc3=O)cc2F)C1

logD [1]: 1.8
Compound: O=C(Nc1ccc(Cl)cc1)[C@H]1CN(CCO)C[C@@H]1C(=O)Nc1ccc(-n2ccccc2=O)cc1F

logD [1]: 2.69
Compound: O=C(Nc1ccc(Cl)cc1)[C@H]1CN(CC(F)F)C[C@@H]1C(=O)Nc1ccc(-n2ccccc2=O)cc1F

logD [1]: 1.83
Compound: NS(=O)(=O)N1C[C@H](C(=O)Nc2ccc(Cl)cc2)[C@@H](C(=O)Nc2ccc(-n3ccccc3=O)cc2F)C1

logD [1]: 2.68
Compound: O=C(Nc1ccc(Cl)cc1)[C@H]1CN(S(=O)(=O)CC(F)(F)F)C[C@@H]1C(=O)Nc1ccc(-n2ccccc2=O)cc1F

logD [1]: 2.62
Compound: CN(C)S(=O)(=O)N1C[C@H](C(=O)Nc2ccc(Cl)cc2)[C@@H](C(=O)Nc2ccc(-n3ccccc3=O)cc2F)C1

logD [1]: 2.81
Compound: CC(C)S(=O)(=O)N1C[C@H](C(=O)Nc2ccc(Cl)cc2)[C@@H](C(=O)Nc2ccc(-n3ccccc3=O)cc2F)C1

logD [1]: 2.57
Compound: CCOC(=O)N1C[C@H](C(=O)Nc2ccc(Cl)cc2)[C@@H](C(=O)Nc2ccc(-n3ccccc3=O)cc2F)C1

Vd [3]: 0.18 L/kg | AUC (Rattus norvegicus): 10000 ng·h/mL | bioavailability [4]: 100% | pKa [5]: 4.79 | Vd [6]: 0.54 L/kg | AUC (Cynomolgus monkey): 1700 ng·h/mL | half-life [7]: 1.3 h | logD [1]: 2.2 | half-life [8]: 6.3 h | bioavailability [9]: 65% | clearance [10]: 6.4 mL/min/kg | clearance [11]: 2.1 mL/min/kg
Compound: O=C(Nc1ccc(Cl)cn1)[C@H]1CN(CC(F)F)C[C@@H]1C(=O)Nc1ccc(-n2ccccc2=O)cc1F
Phospholipidosis (Phospholipidosis): Not Active

Vd [3]: 0.42 L/kg | AUC (Rattus norvegicus): 2300 ng·h/mL | bioavailability [4]: 100% | pKa [5]: 2.75 | Vd [6]: 0.44 L/kg | AUC (Cynomolgus monkey): 6700 ng·h/mL | half-life [7]: 1.5 h | logD [1]: 2.02 | half-life [8]: 5 h | bioavailability [9]: 64% | clearance [10]: 1.8 mL/min/kg | clearance [11]: 7.3 mL/min/kg
Compound: COC(=O)N1C[C@H](C(=O)Nc2ccc(Cl)cn2)[C@@H](C(=O)Nc2ccc(-n3ccccc3=O)cc2F)C1
Phospholipidosis (Phospholipidosis): Not Active

logD [1]: 1.07
Compound: CS(=O)(=O)N1C[C@H](C(=O)Nc2ccc3[nH]ccc3c2)[C@@H](C(=O)Nc2ccc(-n3ccccc3=O)cc2F)C1

logD [1]: 2.36
Compound: CS(=O)(=O)N1C[C@H](C(=O)Nc2ccc(OC(F)(F)F)cc2)[C@@H](C(=O)Nc2ccc(-n3ccccc3=O)cc2F)C1

logD [1]: 0.5
Compound: CS(=O)(=O)N1C[C@H](C(=O)Nc2ccc3[nH]ncc3c2)[C@@H](C(=O)Nc2ccc(-n3ccccc3=O)cc2F)C1

The remaining lines, values behind:

Compound: CC(=O)N1C[C@H](C(=O)Nc2ccc(Cl)cc2)[C@@H](C(=O)Nc2ccc(-n3ccccc3=O)cc2F)C1
logD [1]: 1.8

Compound: CS(=O)(=O)N1C[C@H](C(=O)Nc2ccc(Cl)cc2)[C@@H](C(=O)Nc2ccc(N3CCOCC3=O)cc2)C1
Papp [2]: 0.46 ×10⁻⁶ cm/s

Compound: CCS(=O)(=O)N1C[C@H](C(=O)Nc2ccc(Cl)cc2)[C@@H](C(=O)Nc2ccc(-n3ccccc3=O)cc2F)C1
logD [1]: 2.44

Compound: COC(=O)N1C[C@H](C(=O)Nc2ccc(Cl)cc2)[C@@H](C(=O)Nc2ccc(-n3ccccc3=O)cc2F)C1
logD [1]: 2.43

Compound: O=C(Nc1ccc(Cl)cc1)[C@H]1CN(CC(F)(F)F)C[C@@H]1C(=O)Nc1ccc(-n2ccccc2=O)cc1F
logD [1]: 3.2

Compound: O=C(Nc1ccc(Cl)cc1)[C@H]1CN(C(=O)N2CCCC2)C[C@@H]1C(=O)Nc1ccc(-n2ccccc2=O)cc1F
logD [1]: 2.78

Compound: CCCOC(=O)N1C[C@H](C(=O)Nc2ccc(Cl)cc2)[C@@H](C(=O)Nc2ccc(-n3ccccc3=O)cc2F)C1
logD [1]: 3.06

Compound: CCCS(=O)(=O)N1C[C@H](C(=O)Nc2ccc(Cl)cc2)[C@@H](C(=O)Nc2ccc(-n3ccccc3=O)cc2F)C1
logD [1]: 2.94

Compound: CS(=O)(=O)N1C[C@H](C(=O)Nc2ccc(Cl)cn2)[C@@H](C(=O)Nc2ccc(-n3ccccc3=O)cc2F)C1
logD [1]: 1.46

Compound: CCS(=O)(=O)N1C[C@H](C(=O)Nc2ccc(Cl)cn2)[C@@H](C(=O)Nc2ccc(-n3ccccc3=O)cc2F)C1
Vd [3]: 0.04 L/kg | AUC (Rattus norvegicus): 3300 ng·h/mL | bioavailability [4]: 24% | pKa [5]: 2.99 | Vd [6]: 0.46 L/kg | AUC (Cynomolgus monkey): 230 ng·h/mL | half-life [7]: 1.1 h | Phospholipidosis (Phospholipidosis): Not Active | logD [1]: 1.77 | half-life [8]: 1.9 h | bioavailability [9]: 9% | clearance [10]: 5.5 mL/min/kg | clearance [11]: 1.3 mL/min/kg

Compound: O=C(Nc1ccc(Cl)cn1)[C@H]1CNC[C@@H]1C(=O)Nc1ccc(-n2ccccc2=O)cc1F
logD [1]: 0.63

Compound: CC(C)N1C[C@H](C(=O)Nc2ccc(Cl)cn2)[C@@H](C(=O)Nc2ccc(-n3ccccc3=O)cc2F)C1
Vd [3]: 0.47 L/kg | AUC (Rattus norvegicus): 900 ng·h/mL | bioavailability [4]: 39% | pKa [5]: 7.55 | Vd [6]: 1.6 L/kg | AUC (Cynomolgus monkey): 820 ng·h/mL | half-life [7]: 2.9 h | Phospholipidosis (Phospholipidosis): Active | logD [1]: 1.86 | half-life [8]: 4.7 h | bioavailability [9]: 80% | clearance [10]: 17 mL/min/kg | clearance [11]: 4.2 mL/min/kg

Compound: O=C(Nc1ccc(Cl)cn1)[C@H]1CN(CC(F)(F)F)C[C@@H]1C(=O)Nc1ccc(-n2ccccc2=O)cc1F
logD [1]: 2.62

Compound: COc1ccc(NC(=O)[C@H]2CN(S(C)(=O)=O)C[C@@H]2C(=O)Nc2ccc(-n3ccccc3=O)cc2F)cc1Cl
logD [1]: 1.9

Compound: COc1ccc(NC(=O)[C@H]2CN(S(C)(=O)=O)C[C@@H]2C(=O)Nc2ccc(-n3ccccc3=O)cc2F)cc1F
logD [1]: 0.56

Compound: CS(=O)(=O)N1C[C@H](C(=O)Nc2ccc(Cl)c(F)c2)[C@@H](C(=O)Nc2ccc(-n3ccccc3=O)cc2F)C1
logD [1]: 2.37
